Series [1] relates to A2780 ovarian cancer cells. Put plainly: Alamar Blue cell proliferation assay, A2780. It counts as cell-based, human. The settings on record: 4-day incubation; for IC50: Homo sapiens, 96 h, read-out: A2780 cell proliferation inhibition pIC50 (converted). The method, then: Cellular activity of the compounds of formula (I) was determined on A2780 tumour cells using a colorimetric assay for cell toxicity or survival (see example C.2).
The human A2780 ovarian cancer cells were a kind gift from Dr. T. C. Hamilton (Fox Chase Cancer Centre, Pennsylvania, U.S.A.). The cells were cultured in RPMI 1640 medium supplemented with 2 mM L-Glutamine, 50 μg/ml gentamicin and 10% fetal calf serum.
(§1) Resazurin was purchased from Aldrich (Prod. No. 199303). Potassium ferrocyanide, potassium ferricyanide, KH2PO4 and K2HPO4 were purchased from Sigma (Prod. Nos. P9387, P8131, P5655 and P8281, respectively).
(§2) Potassium Phosphate Buffer 0.1 M (PPB) was made as follows: 2.72 gram KH2PO4 and 13.86 gram K2HPO4 were dissolved in 500 ml milli-Q H2O, the pH was adjusted to pH 7.4 and the volume was brought to 1 litre with milli-Q H2O; the buffer was filter sterilised and stored at room temperature. Resazurin stock solution (PPB-A) was prepared fresh by dissolving 45 mg resazurin in 15 ml PBS. 30 mM potassium ferricyanide (PPB-B) was prepared by dissolving 0.987 gram potassium ferricyanide in 100 ml PPB. 30 mM potassium ferrocyanide (PPB-C) was prepared by dissolving 1.266 gram potassium ferrocyanide in 100 ml PPB.
(§3) Mixture of PPB-A, PPB-B and PPB-C was prepared by mixing equal volumes of the respective solutions. Resazurin work solution (herein termed “Alamar Blue” solution) was prepared by diluting said mixture 20×(vol/vol) in PPB and filter sterilising; the Alamar Blue solution could be kept at 4° C. for a maximum of 2 weeks.
(§4) For experiments in 384 wells plates the cells were seeded at a density of 5×10^3 cells/ml in Falcon 384-well culture plates (Life Technologies, Merelbeke, Belgium), black with clear bottom, in 45 μl culture medium. Cells were allowed to adhere to plastic for 24 hr. The tested compound was pre-diluted (1/50 in culture medium) and 5 μl pre-diluted compound was added to the wells. Following 4-day incubation, 10 μl of the Alamar Blue solution was added to each well and the cells were further incubated for 5 hrs (A2780) or 6 hrs (U87MG) at 37° C. The fluorescence intensity was measured for each well with a Fluorescence plate reader (Fluorskan, Labsystems, 540 nm excitation and 590 nm emission)
(§5) The antiproliferative activity was calculated as percentage of remaining viable cells in treated versus control (untreated cells) conditions. Within an experiment, the result for each experimental condition is the mean of 3 replicate wells. When appropriate, the experiments were repeated to establish full concentration-response curves. When appropriate, IC50-values (concentration of the drug, needed to reduce cell growth to 50% of the control) were computed using probit analysis for graded data (Finney, D. J., Probit Analyses, 2nd Ed. Chapter 10, Graded Responses, Cambridge University Press, Cambridge 1962). Herein the effects of test compounds are expressed as pIC50 (the negative log value of the IC50-value) (see Table 4).
(Resazurin is reduced to fluorescent resorufin, in cell work by metabolically active cells.)

For a further series, the system named is p53 in A2780 cells. Put plainly: p53 ELISA (preservation of p53 in A2780 cells). Type of series: cell-based, human. The conditions noted are these: lowest dose giving at least 140% of the p53 value in the control, 16 hours treatment; for minimal effective concentration: Homo sapiens, read-out: p53-elisa LAD. As for the experimental part:
The capacity of the compounds to preserve p53 in A2780 cells was measured with the p53 enzyme linked immunosorbent assay (ELISA). The p53 assay is a “sandwich” enzyme immunoassay employing two polyclonal antibodies. A polyclonal antibody, specific for the p53 protein, has been immobilized onto the surface of the plastic wells. Any p53 present in the sample to be assayed will bind to the capture antibody. The biotinylated detector polyclonal antibody also recognizes p53 protein, and will bind to any p53, which has been retained by the capture antibody. The detector antibody, in turn, is bound by horseradish peroxidase-conjugated streptavidin. The horseradish peroxidase catalyses the conversion of the chromogenic substrate o-phenylene diamine, the intensity of which is proportional to the amount of p53 protein bound to the plate. The coloured reaction product is quantified using a spectrophotometer. Quantitation is achieved by the construction of a standard curve using known concentrations of purified recombinant HIS tagged p53 protein (see example C.1).
A2780 cells (ATCC) were cultivated in RPMI 1640 supplemented with 10% fetal calf serum (FCS), 2 mM L-glutamine and gentamycin at 37° C. in a humidified incubator with 5% CO2.
A2780 cells were seeded at 20.000 cells per well in a 96 well plate, cultured for 24 hours and treated with compound for 16 hours at 37° C. in a humidified incubator. After incubation, the cells were washed once with phosphate-buffered saline and 30 μl, per well, low salt RIPA buffer (20 mM tris, pH7.0, 0.5 mM EDTA, 1% Nonidet P40, 0.5% DOC, 0.05% SDS, 1 mM PMSF, 1 μg/ml aprotinin and 0.5 μ/ml leupeptin) was added. Plates were placed on ice for 30 minutes to complete the lysis. p53 protein was detected in de lysates by using the sandwich ELISA, described below.
High binding polystyrene EIA/RIA 96 well plates (Costar 9018) were coated with the capture antibody pAb1801 (Abcam ab28-100) at a concentration of 1 μg/ml in coating buffer (0.1 M NaHCO3 pH8.2), 50 μl per well. The antibody was allowed to adhere overnight at 4° C. Coated plates were washed once with phosphate-buffered saline (PBS)/0.05% Tween 20 and 300 μl of blocking buffer (PBS, 1% bovine serum albumins (BSA)) was added, for an incubation period of 2 hours at room temperature. Dilutions of purified recombinant HIS tagged p53 protein, ranging from 3-200 ng/ml, were made in blocking buffer and used as standards.
Plates were washed twice with PBS/0.05% Tween 20 and blocking buffer or standards were added at 80 μl/well. To the standards, 20 μl of lysis buffer was added. The samples were added to the other wells at 20 μl lysate/well. After an overnight incubation at 4° C., plates were washed twice with PBS/0.05% Tween 20. Aliquots of 100 μl secondary polyclonal antibody p53(FL-393) (Tebubio, sc-6243) at a concentration of 1 μg/ml in blocking buffer were added to each well and allowed to adhere for 2 hours at room temperature. Plates were washed three times with PBS/0.05% Tween 20. Detection antibody anti-rabbit HRP (sc-2004, Tebubio) at 0.04 μg/ml in PBS/1% BSA was added and incubated for 1 hour at room temperature. Plates were washed three times with PBS/0.05% Tween 20 and 100 μl of substrate buffer was added (substrate buffer was prepared shortly before use by adding 1 tablet of 10 mg o-phenylene diamine (OPD) from Sigma and 125 μl 3% H2O2 to 25 ml OPD buffer: 35 mM citric acid, 66 mM Na2HPO4, pH5.6). After 5 to 10 minutes, colour reaction was stopped by adding 50 μl stop buffer (1 M H2SO4) per well. The absorbance at dual wavelengths of 490/655 nm was measured using a Biorad micro plate reader and the results were then analyzed.
For each experiment, controls (containing no drug) and a blank incubation (containing no cells or drugs) were run in parallel. The blank value was subtracted from all control and sample values. For each sample, the value of p53 (in absorbance units) was expressed as the percentage of the value for p53 present in the control. […]
On the technique in general: An ELISA detects its analyte on a solid surface through an enzyme-linked reagent.

In the next series the test system is U87MG glioma cells. Put plainly: Alamar Blue cell proliferation assay, U87MG. It counts as cell-based, human. The settings on record: 4-day incubation; for IC50: Homo sapiens, U-87 MG, 96 h, read-out: U87MG cell proliferation inhibition pIC50 (converted). The method, then:
The human U87MG glioma cells were cultured in DMEM medium supplemented with 2 mM L-Glutamine, 1 mM Sodium Pyruvate, 1.5 g/L Sodium Bicarbonate, 50 μg/ml gentamicin and 10% heat inactivated fetal calf serum. (U87MG cells are human glioblastoma cells with wild type p53. In this cell line MDM2 tightly controls p53 expression).
as §1, §2, §3, §4, §5

The structures appear in SMILES notation. Where a name gives a salt, the structure may show the parent alone.

As to `OCc1cc(Nc2cc(F)c(NCCc3c[nH]c4ccccc34)c(F)c2)ccn1` (as salt: hydrochloric acid salt) [Compound 14], the melting point (as a rule, the temperature of the solid-liquid transition) was found to be 110 °C.
In turn, `Cc1c(NCCc2c[nH]c3ccccc23)ccc(Nc2ccncc2)c1C` [Compound 1] registered a melting point of 186 °C. Moreover, in series [1], the IC50 is above 10 µM. Moreover, in the series on p53 in A2780 cells, the minimal effective concentration is above 10 µM. Further, in the series on U87MG glioma cells, the IC50 is above 10 µM.
In turn, `Cc1c(NCCc2c[nH]c3ccccc23)ccc(Nc2ccnc(CO)c2)c1C` [Compound 2] came in with a melting point of 163 °C. For the same compound, the IC50 in series [1] was above 10 µM. Besides, the minimal effective concentration with p53 in A2780 cells worked out at 3 µM. In addition, in the series on U87MG glioma cells, the IC50 is 7.76 µM.
In the same order, the values of `FC(F)(F)c1cc(Nc2ccncc2)cc(C(F)(F)F)c1NCCc1c[nH]c2ccccc12` [Compound 3] are 187 °C, above 10 µM, above 10 µM and above 10 µM.
On to `OC1CCc2c(Nc3cc(C(F)(F)F)c(NCCc4c[nH]c5ccccc45)c(C(F)(F)F)c3)ccnc21` (stereo not shown) [Compound 5], for which the melting point was found to be 178 °C. The IC50 in series [1] is above 10 µM. The minimal effective concentration in the series with p53 in A2780 cells was found to be 0.3 µM. Also, in the series on U87MG glioma cells, the IC50 is above 10 µM.
Regarding `c1ccc2c(CCNc3ccc(Nc4ccncc4)c4ccccc34)c[nH]c2c1` [Compound 6], the melting point amounted to 166 °C. Moreover, in series [1], the IC50 is above 10 µM. For the same compound, in the series with p53 in A2780 cells, the minimal effective concentration worked out at 1 µM. Also, the IC50 with U87MG glioma cells is 1.58 µM.
In the same order, the values of `Cc1cc(Nc2ccnc3c2CCC3O)c(Cl)cc1NCCc1c[nH]c2ccccc12` (stereo not shown) [Compound 9] are 207 °C, 4.17 µM, above 10 µM and above 10 µM.
As to `Cc1cc(Nc2ccnc3c2CCC3O)c(Cl)cc1NCCc1c[nH]c2c(C)cccc12` (stereo not shown) [Compound 10], the melting point was found to be 237 °C. In series [1], the IC50 was 3.55 µM. The minimal effective concentration with p53 in A2780 cells amounted to 1 µM. Moreover, in the series on U87MG glioma cells, the IC50 was 2.82 µM.
For `Fc1cc(Nc2ccncc2)cc(F)c1NCCc1c[nH]c2ccccc12` [Compound 11] the same measures were 164 °C, above 10 µM, above 10 µM and 4.9 µM.
With `OC1CCc2c(Nc3cc(F)c(NCCc4c[nH]c5ccccc45)c(F)c3)ccnc21` (stereo not shown) [Compound 17], the melting point stood at 147 °C. The IC50 in series [1] is 8.32 µM. In addition, the minimal effective concentration in the series on p53 in A2780 cells came to 1 µM. Besides, the IC50 in the series on U87MG glioma cells was 6.92 µM.
For `OCc1cc(Nc2cc(Cl)c(NCCc3c[nH]c4ccccc34)c(Cl)c2)ccn1` [Compound 24] the same measures were 115 °C, above 10 µM, above 10 µM and above 10 µM.
In the same order, the values of `Cc1[nH]c2ccccc2c1CCNc1c(Cl)cc(Nc2ccnc(CO)c2)cc1Cl` [Compound 25] are 186 °C, above 10 µM, 3 µM and above 10 µM.
In the same order, the values of `COc1ccc2c(CCNc3c(Cl)cc(Nc4ccnc5ccccc45)cc3Cl)c[nH]c2c1` [Compound 31] are 175 °C, around 2.57 µM, 1 µM and 1.32 µM.
Turning to `N#Cc1c(NCCc2c[nH]c3ccccc23)ccc(Nc2ccnc3c2CCC3O)c1N1CCOCC1` (stereo not shown) [Compound 57], the “A2780 cell proliferation inhibition pIC50” value in series [1] is recorded as below 5. For the same compound, in the series on p53 in A2780 cells, the “p53-elisa LAD” value was above 10.0 µM. Besides, in the series on U87MG glioma cells, the “U87MG cell proliferation inhibition pIC50” value is given as below 5.
`Cc1cccc2c(CCNc3ccc(Nc4ccnc5c4CCC5O)c(N4CCOCC4)c3C#N)c[nH]c12` (stereo not shown) [Compound 58]: the “A2780 cell proliferation inhibition pIC50” value in series [1] was below 5. Further, the “p53-elisa LAD” value in the series on p53 in A2780 cells was above 10.0 µM. Moreover, in the series with U87MG glioma cells, the “U87MG cell proliferation inhibition pIC50” value was below 5.
For `COc1c(Nc2ccnc3c2CCC3O)ccc(NCCc2c[nH]c3c(CO)cccc23)c1F` (stereo not shown) [Compound 62], the IC50 in series [1] is 0.912 µM; in the series with U87MG glioma cells, 1.29 µM. Moreover, in the series with p53 in A2780 cells, the minimal effective concentration was 3 µM.
In the same order, the values of `COc1c(Nc2ccnc3c2CCC3O)ccc(NCCc2c[nH]c3c(C(C)(C)O)cccc23)c1F` (stereo not shown) [Compound 63] are 0.0741 µM, 0.468 µM and 1 µM.
For `C=C(C)c1cccc2c(CCNc3ccc(Nc4ccnc5c4CCC5O)c(OC)c3F)c[nH]c12` (stereo not shown) [Compound 64] the same measures were 0.0851 µM, 0.339 µM and 0.3 µM.

Values taken from patent publication US11583524B2, “Inhibitors of the interaction between MDM2 and P53” (Janssen Pharmaceutica NV, priority 2007, dated 2023).
